Key:
Jurkat = assay: Proliferation (3H-thymidine) of Jurkat; assay type: cell-based, human
Source text: (§1) CCRF-CEM, CEM/C1, CEM/C2, CEM-C7, Jurkat, Loucy, Molt-4, HSB-2, SUP-T1, Hut 78, HH, Hut 102, MO, and H9 T-leukemia and T-lymphoma cell lines were purchased from the American Type Culture Collection (Manassas, Va., USA). All of the cell lines were initially expanded and cryopreserved within one month of receipt. Cells were typically used for 6 months at which time a fresh vial of cryopreserved cells was used. Total T cells from healthy donors were isolated via negative selection followed by positive selection using a CD3+ selection kit (Invitrogen, Carlsbad, Calif.). T cells were isolated from patients with T-ALL bone marrow or peripheral blood samples containing more than 70% leukemia cells using a CD2+ isolation kit (STEMCELL Technologies, Vancouver, Canada). All tissues were collected under institutional IRB-approved protocols and all participants gave written informed assent/consent. For in vitro experiments, T-ALL cells were cultured in AIM-V medium supplemented with 20% human AB serum in the presence of recombinant human stem cell factor (50 ng/mL; Amgen, Thousand Oaks, Calif.), insulin (20 nM; Sigma-Aldrich, St Louis, Mo., USA) and IL-7 (50 ng/mL; R&D Systems, Minneapolis, Minn., USA). In other experiments, protein lysate was collected using the Full Moon Biosystems (Sunnyvale, Calif., USA) buffer prior to protein examination by western blot or protein array.
(§2) Cells were cultured in a 96-well plate (Corning Costar, Corning, N.Y., USA) with various concentrations of TLR ligands 1-9, starting at 10 μg/ml, in a final volume of 200 ul. TLR ligands were diluted 2-fold. Cell lines (25-40×10^3/well) were cultured for 54 hours, whereas fresh patient-derived T-ALL cells (200×10^3/well) were cultured for 30 hours prior to adding [^3H]-thymidine for 18 hours. After this time point, cells were harvested with a Packard Filter-Mate-96 cell harvester (Perkin Elmer, Waltham, Mass., USA) and counted on Packard Top Count-NXT (Perkin Elmer, Waltham, Mass., USA). Results were expressed as average counts per minute (cpm). In some experiments CCRF-CEM cells were pre-treated with TLR1-TLR2 ligand (Pam3CysK4; 2.5 ug/ml) for 48 hrs, washed, and then cultured in the presence of varying concentrations of FBS. Forty-eight hours later, proliferation (±SD) was determined by ^3H-thymidine incorporation. Alternatively, apoptosis was measured by flow cytometry after staining cells with Annexin-V (BD Pharmingen, San Diego, Calif., USA) and propidium iodide (Sigma). Cell number was counted under microscopy by staining cells with trypan blue. […]

[1] = tested on: stage IA cutaneous T-lymphoma; conditions: topical cream containing 5% Imiquimod; cited from earlier work
H9 = assay: Proliferation (3H-thymidine) of H9; assay type: cell-based, human; conditions: H9; 3H-thymidine uptake, 72 h
Source text: as §1
(§3) Cells were cultured in a 96-well plate (Corning Costar, Corning, N.Y., USA) with various concentrations of TLR ligands 1-9, starting at 10 μg/ml, in a final volume of 200 ul. TLR ligands were diluted 2-fold. Cell lines (25-40×10^3/well) were cultured for 54 hours, whereas fresh patient-derived T-ALL cells (200×10^3/well) were cultured for 30 hours prior to adding [^3H]-thymidine for 18 hours. After this time point, cells were harvested with a Packard Filter-Mate-96 cell harvester (Perkin Elmer, Waltham, Mass., USA) and counted on Packard Top Count-NXT (Perkin Elmer, Waltham, Mass., USA). Results were expressed as average counts per minute (cpm). In some experiments CCRF-CEM cells were pre-treated with TLR1-TLR2 ligand (Pam3CysK4; 2.5 ug/ml) for 48 hrs, washed, and then cultured in the presence of varying concentrations of FBS. Forty-eight hours later, proliferation (±SD) was determined by ^3H-thymidine incorporation. Alternatively, apoptosis was measured by flow cytometry after staining cells with Annexin-V (BD Pharmingen, San Diego, Calif., USA) and propidium iodide (Sigma). Cell number was counted under microscopy by staining cells with trypan blue.
(§4) The following TLR ligands were purchased from Invivogen (San Diego, Calif., USA): tripalmitoyl-S-(bis(palmitoyloxy)propyl)-Cys-Ser-(Lys)3-Lys (TLR1-2); Poly I:C (TLR3); ultrapure S. Minnesota Lipopolysaccharide (TLR4); S. typhimurium flagellin (TLR5); FSL-1 (TLR2/6); Imiquimod (TLR7); ssRNA40/Lyovec (TLR8); CpG-ODN 2006 (TLR9).

HSB-2 = assay: Proliferation (3H-thymidine) of HSB-2; assay type: cell-based, human
Source text: as §1, §3, §4

CEM-C2 = assay: Proliferation (3H-thymidine) of CEM-C2; assay type: cell-based, human; conditions: 3H-thymidine uptake, 72 h
Source text: as §1, §2

SupT1 = assay: Proliferation (3H-thymidine) of SupT1; assay type: cell-based, human; conditions: SupT1
Source text: as §1, §3, §4

Primary T-cells Non-Act = assay: Proliferation (3H-thymidine) of non-activated primary T-cells; assay type: cell-based, human; conditions: 3H-thymidine uptake, 72 h
Source text: as §1, with “In other experiments, protein lysate was collected using the Full Moon Biosystems (Sunnyvale, Calif., USA) buffer prior to protein examination by western blot or protein array.” left out
as §2, with “TLR ligands were diluted 2-fold. Cell lines (25-40×10^3/well) were cultured for 54 hours, whereas fresh patient-derived T-ALL cells (200×10^3/well) were cultured for 30 hours prior to adding [^3H]-thymidine for 18 hours.” left out, “In some experiments CCRF-CEM cells were pre-treated with TLR1-TLR2 ligand (Pam3CysK4; 2.5 ug/ml) for 48 hrs, washed, and then cultured in the presence of varying concentrations of FBS.” left out

Hut-78 = assay: Proliferation (3H-thymidine) of Hut-78; assay type: cell-based, human; conditions: 3H-thymidine uptake, 72 h
Source text: as §1, with “In other experiments, protein lysate was collected using the Full Moon Biosystems (Sunnyvale, Calif., USA) buffer prior to protein examination by western blot or protein array.” left out
as §2, with “TLR ligands were diluted 2-fold. Cell lines (25-40×10^3/well) were cultured for 54 hours, whereas fresh patient-derived T-ALL cells (200×10^3/well) were cultured for 30 hours prior to adding [^3H]-thymidine for 18 hours.” left out, “In some experiments CCRF-CEM cells were pre-treated with TLR1-TLR2 ligand (Pam3CysK4; 2.5 ug/ml) for 48 hrs, washed, and then cultured in the presence of varying concentrations of FBS.” left out

[2] = tested on: Primary T-cells Activated; assay: Proliferation (3H-thymidine) of activated primary T-cells; assay type: cell-based, human; conditions: Primary T-cells, Activated
Source text: as §1, §3, §4

CCRF-CEM = assay: Proliferation (3H-thymidine) of CCRF-CEM; assay type: cell-based, human; conditions: 3H-thymidine uptake, 72 h
Source text: as §1, §3, §4

Molt-4 = assay: Proliferation (3H-thymidine) of Molt-4; assay type: cell-based, human; conditions: 3H-thymidine uptake, 72 h
Source text: as §1, with “In other experiments, protein lysate was collected using the Full Moon Biosystems (Sunnyvale, Calif., USA) buffer prior to protein examination by western blot or protein array.” left out
as §2, with “TLR ligands were diluted 2-fold. Cell lines (25-40×10^3/well) were cultured for 54 hours, whereas fresh patient-derived T-ALL cells (200×10^3/well) were cultured for 30 hours prior to adding [^3H]-thymidine for 18 hours.” left out, “In some experiments CCRF-CEM cells were pre-treated with TLR1-TLR2 ligand (Pam3CysK4; 2.5 ug/ml) for 48 hrs, washed, and then cultured in the presence of varying concentrations of FBS.” left out

CEM-C1 = assay: Proliferation (3H-thymidine) of CEM-C1; assay type: cell-based, human; conditions: 3H-thymidine uptake, 72 h
Source text: as §1, §2

CEM-C7 = assay: Proliferation (3H-thymidine) of CEM-C7; assay type: cell-based, human; conditions: 3H-thymidine uptake, 72 h
Source text: as §1, §3, §4

Hut 102 = assay: Proliferation (3H-thymidine) of Hut 102; assay type: cell-based, human; conditions: 3H-thymidine uptake, 72 h
Source text: as §1, with “In other experiments, protein lysate was collected using the Full Moon Biosystems (Sunnyvale, Calif., USA) buffer prior to protein examination by western blot or protein array.” left out
as §2, with “TLR ligands were diluted 2-fold. Cell lines (25-40×10^3/well) were cultured for 54 hours, whereas fresh patient-derived T-ALL cells (200×10^3/well) were cultured for 30 hours prior to adding [^3H]-thymidine for 18 hours.” left out, “In some experiments CCRF-CEM cells were pre-treated with TLR1-TLR2 ligand (Pam3CysK4; 2.5 ug/ml) for 48 hrs, washed, and then cultured in the presence of varying concentrations of FBS.” left out

HH = assay: Proliferation (3H-thymidine) of HH; assay type: cell-based, human; conditions: 3H-thymidine uptake, 72 h
Source text: as §1, with “In other experiments, protein lysate was collected using the Full Moon Biosystems (Sunnyvale, Calif., USA) buffer prior to protein examination by western blot or protein array.” left out
as §2, with “TLR ligands were diluted 2-fold. Cell lines (25-40×10^3/well) were cultured for 54 hours, whereas fresh patient-derived T-ALL cells (200×10^3/well) were cultured for 30 hours prior to adding [^3H]-thymidine for 18 hours.” left out, “In some experiments CCRF-CEM cells were pre-treated with TLR1-TLR2 ligand (Pam3CysK4; 2.5 ug/ml) for 48 hrs, washed, and then cultured in the presence of varying concentrations of FBS.” left out

MO = assay: Proliferation (3H-thymidine) of MO; assay type: cell-based, human; conditions: 3H-thymidine uptake, 72 h
Source text: as §1, with “In other experiments, protein lysate was collected using the Full Moon Biosystems (Sunnyvale, Calif., USA) buffer prior to protein examination by western blot or protein array.” left out
as §2, with “TLR ligands were diluted 2-fold. Cell lines (25-40×10^3/well) were cultured for 54 hours, whereas fresh patient-derived T-ALL cells (200×10^3/well) were cultured for 30 hours prior to adding [^3H]-thymidine for 18 hours.” left out, “In some experiments CCRF-CEM cells were pre-treated with TLR1-TLR2 ligand (Pam3CysK4; 2.5 ug/ml) for 48 hrs, washed, and then cultured in the presence of varying concentrations of FBS.” left out

Loucy = assay: Proliferation (3H-thymidine) of Loucy; assay type: cell-based, human; conditions: 3H-thymidine uptake, 72 h
Source text: as §1, §2

A375 melanoma cells [3] = assay: Western blot of cleaved PARP and caspase-3; assay type: cell-based, human; conditions: single agent alone, 48 hrs, FIG. 8D
Procedure: FIG. 8. […] (A) A375 and Malme-3M melanoma cells were cultured with or without 2.5 μM of IRAK-1,-4 and in the presence varying concentrations of vinblastine, cisplatin or 5′ Fluorouracil. Forty-eight hours later apoptosis was evaluated by staining cells with annexin-V and propidium iodide and analyzed by flow cytometry. (B) A375 cells were transfected via electroporation with siRNA-IRAK-1,-4. IRAK-1 protein levels were examined by Western blotting. […], A375-psiRNA-hIRAK-1, A375-psiRNA-hIRAK-4, or cells expressing both psiRNA-hIRAK-1 and -4 were cultured in the presence of vinblastine (100 nmol/L) for 48 hours and apoptosis was examined by flow cytometry. (C) A375 melanoma cells were cultured in the presence of vehicle alone (DMSO) or various concentrations of IRAK-1,-4. Forty-eight hours later cell lysates were used to analyze the expression of levels of cleaved PARP or caspase-3 by Western blots. (D) A375 melanoma cells were cultured with or without 2.5 μM of IRAK.-1,-4 and in the presence or absence of vinblastine for 48 hrs. PARP and caspase-3 levels were determined by Western blot.
Total cell extracts were prepared from melanoma cells. […] Melanoma tissue arrays were purchased from US Biomax, Inc (Rockville, Md.). For immunohistochemical staining samples were stained with mouse monoclonal anti-human phosphor-IRAK.-4 antibody (Abnova; dilution, 3.5 μg/ml) or normal mouse serum. Tissue histology sections (5-μm-thick) were deparaffinized, hydrated, heated in boiling 10 mmol/L sodium citrate (pH 6.0), for antigen retrieval, for 30 min and washed in Tris buffer. Peroxide blocking was done with 3% […] in methanol at room temperature for 15 min, followed by 10% fetal bovine serum in TBS-t for 30 min at room temperature. Primary antibody incubation was done overnight at 4° C. Secondary antibody incubation with horse anti-mouse (1:200; Vector Laboratories, Burlingame, Calif.) was done for 1 hr, followed by application of diaminobenzidine chromogen for 5 min. The slides were then counterstained with hematoxylin and topped with a coverslip. IHC specimens were analyzed using “quick score” system in which the intensity of the immunohistochemical reaction was scored by multiplying the intensity 1 (weak), 2 (moderate), and 3 (strong) and the proportion of cells staining positively 0 (<10%), 1 (10-25%), 2 (26-50%), 3 (51-75%) or 4 (>75%).

A375 melanoma cells [4] = assay: A375 melanoma xenograft model; conditions: IRAK-1,-4 inhibitor 35 mg/kg intratumorally, vinblastine 0.25 mg/kg i.p.; control 17 days
Procedure: (A-B) NSG mice (n=5) were injected subcutaneously with A375 melanoma cells. When tumors reached a size of approximately 50 mm^2 mice remained untreated or injected intraperitoneally with vinblastine mg/kg; administered every 2 days for 10 days), or peritumorally with IRAK-1,-4 inhibitor (35 mg/kg), or vinblastine plus IRAK.-1,-4 inhibitor. Tumor sizes were calculated by measuring perpendicular by longitudinal diameter;*, P<0.05. Mouse survival data were analyzed using the exact log-rank test;*, P<0.05, **P<0.001.
NOD.Cg-Prkdc^scid Il2rg^tmWJZ; SzJ IL2RG (NSG) mice (Jackson Laboratories, Bar Harbor, Me.) were subcutaneously (s.c.) injected with 2.5×10^6 A375 melanoma cells delivered in PBS. […] When tumors reached a size of approximately 50 mm^2 mice were injected intratumorally (i.t.) with 35 mg/kg of IRAK-1,-4 inhibitor or an equal volume of vehicle (DMSO). Mice were intraperitoneally (i.p.) injected with vinblastine (0.25 mg/kg) every 2 days for 5 days starting on the same day that mice received with IRAK-1,-4 inhibitor. Tumor sizes were analyzed using a mixed model approach for repeated measurements and mouse survival data were analyzed with the exact log-rank test.

Compound: CC(C)Cn1cnc2c(N)nc3ccccc3c21 [Imiquimod]
- Proliferative effects of TLR ligands (Jurkat; 3H-thymidine uptake, 72 h): − (reduced proliferation)
- TLR ligand concentration in parentheses below the symbol (Jurkat; no unit in table (μg/ml)): (10)
- treatment outcome [1]: successfully treated
- Proliferative effects of TLR ligands (H9): ∘
- Proliferative effects of TLR ligands (HSB-2; 3H-thymidine uptake, 72 h): − (reduced proliferation)
- TLR ligand concentration in parentheses below the symbol (HSB-2; no unit in table (μg/ml)): (1.2)
- Proliferative effects of TLR ligands (CEM-C2): ∘
- Proliferative effects of TLR ligands (SupT1; 3H-thymidine uptake, 72 h): − (reduced proliferation)
- TLR ligand concentration in parentheses below the symbol (SupT1; no unit in table (μg/ml)): (0.6)
- Proliferative effects of TLR ligands (Primary T-cells Non-Act): ∘
- Proliferative effects of TLR ligands (Hut-78): ∘
- Proliferative effects of TLR ligands ([2]; 3H-thymidine uptake, 72 h): − (reduced proliferation)
- TLR ligand concentration in parentheses below the symbol ([2]; no unit in table (μg/ml)): (5)
- Proliferative effects of TLR ligands (CCRF-CEM): ∘
- Proliferative effects of TLR ligands (Molt-4): ∘
- Proliferative effects of TLR ligands (CEM-C1): ∘
- Proliferative effects of TLR ligands (CEM-C7): ∘
- Proliferative effects of TLR ligands (Hut 102): ∘
- Proliferative effects of TLR ligands (HH): ∘
- Proliferative effects of TLR ligands (MO): ∘
- Proliferative effects of TLR ligands (Loucy): ∘

Compound: CC[C@]1(O)C[C@@H]2CN(CCc3c([nH]c4ccccc34)[C@@](C(=O)OC)(c3cc4c(cc3OC)N(C)[C@H]3[C@@](O)(C(=O)OC)[C@H](OC(C)=O)[C@]5(CC)C=CCN6CC[C@]43[C@@H]65)C2)C1 [vinblastine]
- levels of cleaved PARP and caspase-3 (A375 melanoma cells [3]): little effect
- median survival (A375 melanoma cells [4]): 22 days

Reference: US9464326B2, “Total and phosphorylated IL-1 receptor-associated kinase-1 and IL-1 receptor-associated kinase-4 as a biomarker for cancer progression and chemotherapy resistance” (University of Maryland, Baltimore, priority 2012, dated 2016)
